8 molecules from PubChem BioAssay AID2060882 (Molecular Pharmacology Branch, DTP, NCI, 2025) can be followed below.

This assay has as its system 898857-211-R-J1-PDC complex spheroids, growth % test/control. The assay is described as follows: Anticancer human tumor 898857-211-R-J1-PDC patient-derived melanoma cell line growth inhibition [RAS]. Conditions: for viability, T/C: stronger effect = lower value. An excerpt: RAS pathway inhibitors in Combinations in Complex Spheroids
A high-throughput screen of multi-cell type tumor spheroids was designed to identify active combinations of RAS pathway inhibitors and targeted small molecules. Complex spheroids include a stromal component modeled by human endothelial cells (HUVEC) and fibroblasts modeled by human mesenchymal stem cells (MSCs). The concentration ranges selected for each drug and investigational agent were based upon clinically achievable concentrations if the clinical Cmax of the agent was known.
Compounds. The drugs and investigational agents: abemaciclib (NSC768073), cobimetinib (NSC768068), divarasib (GDC6063, NSC841802), docetaxel (NSC628503), GDC-1971 (RLY-1971, NSC841576), gemcitabine (NSC613327), inavolisib (NSC800729), ipatasertib (NSC767898), KB-0742 (NSC834161), MRTX-1133 (NSC836407), osimertinib (NSC779217), RMC-4630 (NSC839698), RMC-6236 (NSC851965), RMC-6291 (NSC852671), Ro-3306 (NSC812927), sapanisertib (NSC764658), SN-38 (NSC673596), staurosporine (NSC755774), SY5609 (NSC837396), and tovorafenib (DAY101, NSC766906), were obtained from the National Cancer Institute (NCI) Developmental Therapeutics Program Chemical Repository. The FDA-approved anticancer drug set is available from the NCI Developmental Therapeutics Program. […] The stock solutions were prepared in dimethyl sulfoxide (DMSO, Sigma-Aldrich, St. Louis, MO, cat. D2650) at 800-fold the tested concentration and stored at -70 degrees C prior to their use. All drugs and investigational agents were tested over a range starting from a high concentration at or near the clinical Cmax and decreasing in half-log increments. If the clinical Cmax for an agent had not been determined, the highest concentration tested was 10 microM.
Cell Culture. All cells were maintained in an incubator at 37 degrees C and 5% CO2 with 95% humidity. The PDC lines were cultured according to standard operating procedures established by the NCI PDMR. All PDCs were thawed and cultured in Matrigel-coated flasks prepared with a working solution of 1X Ham's F-12 nutrient mix, without supplementation (Invitrogen, Waltham, MA, cat. 11765054), 100 U/mL penicillin-streptomycin (Invitrogen, cat. 15140122), and 2.5% Matrigel (Corning Inc., Corning, NY, cat. 354248) for the first three passages. The 362531-283-R-J2-PDC and 782815-120-R-J1-PDC lines were cultured in 6C/Colon 1B media, which includes advanced DMEM/F-12 (Thermo Fisher Scientific, cat. 12634028), 10 mM HEPES (Thermo Fisher Scientific, cat. 15630080), 1X GlutaMAX supplement (Thermo Fisher Scientific, cat. 35050061), 0.1 mg/mL primocin (InvivoGen, San Diego, CA, cat. ant-pm-2), 10% defined fetal bovine serum, heat inactivated (HyClone Laboratories Inc., Logan, UT, cat. SH30070.03HI), 50% L-WRN conditioned media (ATCC, cat. CRL-3276), 1.25 mM N-Acetyl-L-cysteine (Sigma-Aldrich, cat. A9165), 10 mM nicotinamide (Sigma-Aldrich, cat. N0636), 1X B-27 supplement (Thermo Fisher Scientific, cat. 17504044), 1X N-2 supplement (Thermo Fisher Scientific, cat. 17502048), 50 ng/mL human EGF (Thermo Fisher Scientific, cat. PHG0311), and 10 microM Y-27632 dihydrochloride (Tocris Bioscience, cat. 1254). The K12877-001-R-J1-PDC line was cultured in 6I media, which includes all 6C/Colon 1B media plus 10 ng/mL human FGF-10 (PeproTech, cat. 100-26), 1 ng/mL human FGF-2 (PeproTech, cat. 100-18B), 1 µM prostaglandin E2 (Tocris Bioscience, cat. 2296), […] hydrocortisone (Sigma-Aldrich, cat. H4001), and […] bovine insulin (Sigma-Aldrich, cat. I6634). The K86415-001-R-J1-PDC line was cultured in 6D media, which includes all 6C/Colon 1B media components minus the L-WRN conditioned media. The 485176-168-R4-J1-PDC was cultured in PANC media, which includes all 6C/Colon 1B media plus 100 ng/mL human FGF-10 (PeproTech, cat. 100-26), 500 nM SB-431542 (Selleckchem, cat. S1067), and 10 nM gastrin (Tocris Bioscience, cat. 3006). […]

For orientation: viability, T/C means the ratio of treated to control. In general, IC50 refers to the midpoint of a concentration-inhibition curve.

Where “and” joins values, the source holds several entries; their conditions need not be identical. Equal values may be shown once.
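Further: spheroids exposed to compound for seven days before readout.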
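Wherever viability, T/C is given: 100% = DMSO vehicle control wells.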

Take `C=CC(=O)N1CCN(c2nc(OCC3CCCN3C)nc3c(F)c(-c4nc(N)cc(C)c4C(F)(F)F)c(Cl)cc23)C(C)C1` (centres undefined): the viability, T/C is, setting by setting: (compound 0.00316 µM, compound 0.0316 µM) 121%; (compound 0.00316 µM, compound 0.1 µM) 105%; (compound 0.00316 µM, compound 0.316 µM) 117%; (compound 0.00316 µM, compound 1 µM) 124%; (compound 0.00316 µM) 110% [middle of 11 runs]; (compound 0.01 µM, compound 0.00316 µM) 98.1%. Further, the viability, T/C reads like this: (compound 0.01 µM, compound 0.0316 µM) 108%; (compound 0.01 µM, compound 0.1 µM) 112%; (compound 0.01 µM, compound 0.316 µM) 116%; (compound 0.01 µM, compound 1 µM) 127%; (compound 0.01 µM) 108% [middle of 12 runs]; (compound 0.0316 µM, compound 0.00316 µM) 102%. The viability, T/C was 108% (compound 0.0316 µM, compound 0.01 µM); 103% (compound 0.0316 µM, compound 0.1 µM); 115% (compound 0.0316 µM, compound 0.316 µM); 122% (compound 0.0316 µM, compound 1 µM); 112% [middle of 12 runs] (compound 0.0316 µM); 109% (compound 0.1 µM, compound 0.00316 µM). Further, the viability, T/C is 103% (compound 0.1 µM, compound 0.01 µM); 122% (compound 0.1 µM, compound 0.0316 µM); 118% (compound 0.1 µM, compound 0.316 µM); 127% (compound 0.1 µM, compound 1 µM); 114% [middle of 12 runs] (compound 0.1 µM); 125% (compound 0.316 µM, compound 0.00316 µM). Further, the viability, T/C runs as follows: (compound 0.316 µM, compound 0.01 µM) 121%; (compound 0.316 µM, compound 0.0316 µM) 119%; (compound 0.316 µM, compound 0.1 µM) 125%; (compound 0.316 µM, compound 1 µM) 127%; (compound 0.316 µM) 115% [middle of 12 runs]; (compound 1 µM, compound 0.00316 µM) 115%. The viability, T/C (compound 1 µM, compound 0.01 µM) is 126%; the viability, T/C (compound 1 µM, compound 0.0316 µM) is 123%; the viability, T/C (compound 1 µM, compound 0.1 µM) is 112%; the viability, T/C (compound 1 µM, compound 0.316 µM) is 119%; the viability, T/C (compound 1 µM) was 116% [middle of 12 runs]. For the same molecule, the IC50 is, setting by setting: (compound alone, run of 09/09/2024) > 1000 nM; (curve of compound) > 1000 nM.

With `C=CC(=O)Nc1cc(Nc2nccc(-c3cn(C)c4ccccc34)n2)c(OC)cc1N(C)CCN(C)C`, the viability, T/C was 113% and 103% (2×) and 128% (compound 0.00316 µM); 99.8% [middle of 4 runs] (compound 0.01 µM); 114% [middle of 4 runs] (compound 0.0316 µM); 102% [middle of 4 runs] (compound 0.1 µM); 92.8% [middle of 4 runs] (compound 0.316 µM); 54.5% [middle of 4 runs] (compound 1 µM). In addition, for the setting “curve of compound”, the IC50 was 970 nM and > 1000 nM and 799 nM.

As to `CC(C)n1nc(-c2ccc3oc(N)nc3c2)c2c(N)ncnc21`, the viability, T/C is, setting by setting: (compound 0.000316 µM) 112% [middle of 4 runs]; (compound 0.001 µM) 95.8% [middle of 4 runs]; (compound 0.00316 µM) 96.8% [middle of 4 runs]; (compound 0.01 µM) 73.3% [middle of 4 runs]; (compound 0.0316 µM) 48.5% [middle of 4 runs]; (compound 0.1 µM) 20.9% [middle of 4 runs]. The IC50 (curve of compound) was 28.7 nM [middle of 4 runs].

`CC1(C)CCC(Nc2ncc(C(F)(F)F)c(-c3c[nH]c4c(P(C)(C)=O)c(C#N)ccc34)n2)CN1` (centres undefined): the viability, T/C (compound 0.000949 µM) is 92.3% and 96.9% and 98.6%; the viability, T/C (compound 0.003 µM) is 59.9% and 52.9% and 65.2%; the viability, T/C (compound 0.00949 µM) is 31.4% and 26.4% and 32.5%; the viability, T/C (compound 0.03 µM) was 20.2% and 16.2% and 24.3%; the viability, T/C (compound 0.0949 µM) is 17.3% and 16.8% and 20.4%; the viability, T/C (compound 0.3 µM) is 18.4% and 16.5% and 20%. For the same molecule, for the setting “curve of compound”, the IC50 is 4.47 nM and 3.41 nM and 5.16 nM.

Take `CCc1c2c(nc3ccc(O)cc13)-c1cc3c(c(=O)n1C2)COC(=O)[C@]3(O)CC`: the viability, T/C by setting is: (compound 0.000949 µM) 96.5% [middle of 4 runs]; (compound 0.003 µM) 65.1% [middle of 4 runs]; (compound 0.00949 µM) 30.4% [middle of 4 runs]; (compound 0.03 µM) 10.2% [middle of 4 runs]; (compound 0.0949 µM) 7.84% [middle of 4 runs]; (compound 0.3 µM) 7.49% [middle of 4 runs]. Besides, the IC50 (curve of compound) was 4.92 nM [middle of 4 runs].

`CCn1c(-c2cc(N3CCN(C)CC3)cnc2C(C)OC)c2c3cc(ccc31)-c1csc(n1)CC(NC(=O)C1CC1C)C(=O)N1CCCC(N1)C(=O)OCC(C)(C)C2` (centres undefined): the viability, T/C reads like this: (compound 0.000949 µM) 111% [middle of 8 runs]; (compound 0.003 µM) 109% [middle of 8 runs]; (compound 0.00949 µM) 102% [middle of 8 runs]; (compound 0.03 µM) 105% [middle of 8 runs]; (compound 0.0949 µM) 96.2% [middle of 8 runs]; (compound 0.3 µM) 100% [middle of 8 runs]. Besides, the IC50 (compound alone, run of 08/26/2024) is > 300 nM.

`CCn1c(-c2cccnc2C(C)OC)c2c3cc(ccc31)N1CCOC(CC(NC(=O)C(C(C)C)N(C)C(=O)C3(F)CCN(C(=O)C#CC(C)(C)N(C)C)CC3)C(=O)N3CCCC(N3)C(=O)OCC(C)(C)C2)C1` (centres undefined): the viability, T/C reads like this: (compound 0.000949 µM) 110% [middle of 6 runs]; (compound 0.00949 µM) 112% [middle of 6 runs]; (compound 0.03 µM) 103% [middle of 6 runs]; (compound 0.0949 µM) 92.8% [middle of 6 runs]; (compound 0.3 µM) 81.3% [middle of 6 runs]. Besides, the 50% inhibitory concentration (IC50) (compound alone, run of 08/20/2024) was > 300 nM.

On to `O=C(c1ccc(F)c(F)c1Nc1ccc(I)cc1F)N1CC(O)([C@@H]2CCCCN2)C1`, for which the viability, T/C is, setting by setting: (compound 0.00316 µM) 56.5% [middle of 4 runs]; (compound 0.01 µM) 40.4% (2×) and 26.7% and 33.1%; (compound 0.0316 µM) 28.9% [middle of 4 runs]; (compound 0.1 µM) 20.3% [middle of 4 runs]; (compound 0.316 µM) 18.5% [middle of 4 runs]; (compound 1 µM) 13.4% [middle of 4 runs].
